Data as given in the NIST ThermoML archive (doi:10.1016/j.jct.2016.07.017).
± gives the expanded uncertainty stated by the source.

Test: activity coefficient (dimensionless); of the first substance listed, at infinite dilution; xn = mol fraction of the nth substance listed
Conditions: 101.33 kPa, Liquid, Chromatography, x1 = 0

Row | SMILES | activity coefficient (318.15 K) | activity coefficient (328.15 K) | activity coefficient (338.15 K) | activity coefficient (348.15 K) | activity coefficient (358.15 K)
1 | CO [methanol] + CC[N+](C)(CC)CCOC.O=S(=O)([N-]S(=O)(=O)C(F)(F)F)C(F)(F)F | 1.33 ± 0.11 | 1.26 ± 0.11 | 1.15 ± 0.1 | 1.09 ± 0.09 | 1.01 ± 0.08
2 | C=CCCCCC [1-heptene] + CC[N+](C)(CC)CCOC.O=S(=O)([N-]S(=O)(=O)C(F)(F)F)C(F)(F)F | 13.3 ± 1.2 | 12.6 ± 1.1 | 11.9 ± 1 | 11.4 ± 1 | 10.9 ± 0.9
3 | CCOCC [diethyl ether] + CC[N+](C)(CC)CCOC.O=S(=O)([N-]S(=O)(=O)C(F)(F)F)C(F)(F)F | 2.62 ± 0.23 | 2.6 ± 0.22 | 2.6 ± 0.22 | 2.59 ± 0.22 | 2.57 ± 0.22
4 | COC(C)(C)C [2-methoxy-2-methylpropane] + CC[N+](C)(CC)CCOC.O=S(=O)([N-]S(=O)(=O)C(F)(F)F)C(F)(F)F | 2.62 ± 0.23 | 2.63 ± 0.23 | 2.65 ± 0.23 | 2.67 ± 0.23 | 2.67 ± 0.23
5 | C=Cc1ccccc1 [styrene] + CC[N+](C)(CC)CCOC.O=S(=O)([N-]S(=O)(=O)C(F)(F)F)C(F)(F)F | 1.3 ± 0.11 | 1.3 ± 0.11 | 1.31 ± 0.11 | 1.34 ± 0.11 | 1.36 ± 0.11
6 | CCCC(C)=O [pentan-2-one] + CC[N+](C)(CC)CCOC.O=S(=O)([N-]S(=O)(=O)C(F)(F)F)C(F)(F)F | 0.853 ± 0.071 | 0.862 ± 0.072 | 0.87 ± 0.072 | 0.884 ± 0.073 | 0.896 ± 0.074
7 | C#CCCCC [1-hexyne] + CC[N+](C)(CC)CCOC.O=S(=O)([N-]S(=O)(=O)C(F)(F)F)C(F)(F)F | 3.11 ± 0.27 | 3.11 ± 0.27 | 3.1 ± 0.27 | 3.1 ± 0.27 | 3.08 ± 0.27
8 | CCCCCCC [heptane] + CC[N+](C)(CC)CCOC.O=S(=O)([N-]S(=O)(=O)C(F)(F)F)C(F)(F)F | 26.4 ± 2.3 | 24.4 ± 2.1 | 22.3 ± 1.9 | 21 ± 1.8 | 19.3 ± 1.7
9 | CCC(C)(C)C [2,2-dimethylbutane] + CC[N+](C)(CC)CCOC.O=S(=O)([N-]S(=O)(=O)C(F)(F)F)C(F)(F)F | 15.1 ± 1.3 | 14 ± 1.2 | 13.3 ± 1.2 | 12.5 ± 1.1 | 11.9 ± 1
10 | CCC(C)CC [3-methylpentane] + CC[N+](C)(CC)CCOC.O=S(=O)([N-]S(=O)(=O)C(F)(F)F)C(F)(F)F | 16.1 ± 1.4 | 14.9 ± 1.3 | 14 ± 1.2 | 13.1 ± 1.1 | 12.5 ± 1.1
11 | CCCCCC [hexane] + CC[N+](C)(CC)CCOC.O=S(=O)([N-]S(=O)(=O)C(F)(F)F)C(F)(F)F | 18.2 ± 1.6 | 16.9 ± 1.5 | 15.8 ± 1.4 | 14.9 ± 1.3 | 14 ± 1.2
12 | C=CCCCCCCCC [1-decene] + CC[N+](C)(CC)CCOC.O=S(=O)([N-]S(=O)(=O)C(F)(F)F)C(F)(F)F | 40.4 ± 3.5 | 37.4 ± 3.2 | 34.4 ± 3 | 32.2 ± 2.8 | 29.8 ± 2.6
13 | c1ccsc1 [thiophene] + CC[N+](C)(CC)CCOC.O=S(=O)([N-]S(=O)(=O)C(F)(F)F)C(F)(F)F | 0.906 ± 0.075 | 0.912 ± 0.075 | 0.925 ± 0.076 | 0.937 ± 0.077 | 0.94 ± 0.077
14 | CCCO [propan-1-ol] + CC[N+](C)(CC)CCOC.O=S(=O)([N-]S(=O)(=O)C(F)(F)F)C(F)(F)F | 2.26 ± 0.19 | 2.04 ± 0.18 | 1.87 ± 0.16 | 1.72 ± 0.15 | 1.59 ± 0.13
15 | Cc1ccccc1C [1,2-dimethylbenzene] + CC[N+](C)(CC)CCOC.O=S(=O)([N-]S(=O)(=O)C(F)(F)F)C(F)(F)F | 1.93 ± 0.17 | 1.94 ± 0.17 | 1.95 ± 0.17 | 1.96 ± 0.17 | 1.97 ± 0.17
16 | CCCCCCCCCC [decane] + CC[N+](C)(CC)CCOC.O=S(=O)([N-]S(=O)(=O)C(F)(F)F)C(F)(F)F | 82 ± 7.1 | 72.7 ± 6.3 | 65.4 ± 5.7 | 58.1 ± 5 | 52.6 ± 4.6
17 | c1ccccc1 [benzene] + CC[N+](C)(CC)CCOC.O=S(=O)([N-]S(=O)(=O)C(F)(F)F)C(F)(F)F | 1.03 ± 0.08 | 1.04 ± 0.09 | 1.05 ± 0.09 | 1.07 ± 0.09 | 1.07 ± 0.09
18 | C1CCCCC1 [cyclohexane] + CC[N+](C)(CC)CCOC.O=S(=O)([N-]S(=O)(=O)C(F)(F)F)C(F)(F)F | 10.8 ± 0.9 | 10 ± 0.9 | 9.39 ± 0.81 | 8.74 ± 0.75 | 8.3 ± 0.72

Row | SMILES | activity coefficient (318.15 K) | activity coefficient (328.15 K) | activity coefficient (338.15 K) | activity coefficient (348.15 K) | activity coefficient (358.15 K)
19 | Cc1ccc(C)cc1 [1,4-dimethylbenzene] + CC[N+](C)(CC)CCOC.O=S(=O)([N-]S(=O)(=O)C(F)(F)F)C(F)(F)F | 2.12 ± 0.18 | 2.15 ± 0.19 | 2.15 ± 0.19 | 2.17 ± 0.19 | 2.18 ± 0.19
20 | C=CCCCCCC [oct-1-ene] + CC[N+](C)(CC)CCOC.O=S(=O)([N-]S(=O)(=O)C(F)(F)F)C(F)(F)F | 19.6 ± 1.7 | 18.3 ± 1.6 | 17.1 ± 1.5 | 16.2 ± 1.4 | 15.2 ± 1.3
21 | CCc1ccccc1 [ethylbenzene] + CC[N+](C)(CC)CCOC.O=S(=O)([N-]S(=O)(=O)C(F)(F)F)C(F)(F)F | 2.24 ± 0.19 | 2.25 ± 0.19 | 2.26 ± 0.19 | 2.28 ± 0.2 | 2.29 ± 0.2
22 | C1CCOC1 [tetrahydrofuran] + CC[N+](C)(CC)CCOC.O=S(=O)([N-]S(=O)(=O)C(F)(F)F)C(F)(F)F | 0.817 ± 0.068 | 0.83 ± 0.069 | 0.845 ± 0.07 | 0.862 ± 0.072 | 0.867 ± 0.072
23 | C=CCCCC [hex-1-ene] + CC[N+](C)(CC)CCOC.O=S(=O)([N-]S(=O)(=O)C(F)(F)F)C(F)(F)F | 9.21 ± 0.8 | 8.78 ± 0.76 | 8.33 ± 0.72 | 8.07 ± 0.7 | 7.64 ± 0.66
24 | CC#N [acetonitrile] + CC[N+](C)(CC)CCOC.O=S(=O)([N-]S(=O)(=O)C(F)(F)F)C(F)(F)F | 0.488 ± 0.045 | 0.488 ± 0.045 | 0.488 ± 0.045 | 0.49 ± 0.045 | 0.49 ± 0.045
25 | CCC[N+](=O)[O-] [1-nitropropane] + CC[N+](C)(CC)CCOC.O=S(=O)([N-]S(=O)(=O)C(F)(F)F)C(F)(F)F | 0.78 ± 0.066 | 0.778 ± 0.065 | 0.775 ± 0.065 | 0.772 ± 0.065 | 0.77 ± 0.065
26 | Cc1cccc(C)c1 [1,3-dimethylbenzene] + CC[N+](C)(CC)CCOC.O=S(=O)([N-]S(=O)(=O)C(F)(F)F)C(F)(F)F | 2.12 ± 0.18 | 2.14 ± 0.18 | 2.14 ± 0.18 | 2.17 ± 0.19 | 2.18 ± 0.19
27 | CC(C)OC(C)C [diisopropyl ether] + CC[N+](C)(CC)CCOC.O=S(=O)([N-]S(=O)(=O)C(F)(F)F)C(F)(F)F | 6.4 ± 0.55 | 6.28 ± 0.54 | 6.16 ± 0.53 | 6.03 ± 0.52 | 5.88 ± 0.51
28 | c1ccncc1 [pyridine] + CC[N+](C)(CC)CCOC.O=S(=O)([N-]S(=O)(=O)C(F)(F)F)C(F)(F)F | 0.6 ± 0.053 | 0.604 ± 0.053 | 0.607 ± 0.053 | 0.615 ± 0.054 | 0.619 ± 0.054
29 | CCOC(C)(C)C [2-ethoxy-2-methylpropane] + CC[N+](C)(CC)CCOC.O=S(=O)([N-]S(=O)(=O)C(F)(F)F)C(F)(F)F | 6.09 ± 0.53 | 5.94 ± 0.51 | 5.86 ± 0.51 | 5.71 ± 0.49 | 5.59 ± 0.48
30 | C#CCCCCCC [1-octyne] + CC[N+](C)(CC)CCOC.O=S(=O)([N-]S(=O)(=O)C(F)(F)F)C(F)(F)F | 6.47 ± 0.56 | 6.36 ± 0.55 | 6.21 ± 0.54 | 6.11 ± 0.53 | 5.97 ± 0.52
31 | C1COCCO1 [1,4-dioxane] + CC[N+](C)(CC)CCOC.O=S(=O)([N-]S(=O)(=O)C(F)(F)F)C(F)(F)F | 0.66 ± 0.057 | 0.679 ± 0.058 | 0.704 ± 0.06 | 0.723 ± 0.061 | 0.734 ± 0.062
32 | C1CCCC1 [cyclopentane] + CC[N+](C)(CC)CCOC.O=S(=O)([N-]S(=O)(=O)C(F)(F)F)C(F)(F)F | 7.28 ± 0.63 | 6.85 ± 0.59 | 6.47 ± 0.56 | 6.12 ± 0.53 | 5.79 ± 0.5
33 | C#CCCC [1-pentyne] + CC[N+](C)(CC)CCOC.O=S(=O)([N-]S(=O)(=O)C(F)(F)F)C(F)(F)F | 2.15 ± 0.19 | 2.17 ± 0.19 | 2.18 ± 0.19 | 2.19 ± 0.19 | 2.21 ± 0.19
34 | CCCCC(C)=O [2-hexanone] + CC[N+](C)(CC)CCOC.O=S(=O)([N-]S(=O)(=O)C(F)(F)F)C(F)(F)F | 1.14 ± 0.09 | 1.15 ± 0.1 | 1.16 ± 0.1 | 1.18 ± 0.1 | 1.19 ± 0.1
35 | CC(C)O [propan-2-ol] + CC[N+](C)(CC)CCOC.O=S(=O)([N-]S(=O)(=O)C(F)(F)F)C(F)(F)F | 2.04 ± 0.18 | 1.84 ± 0.16 | 1.7 ± 0.14 | 1.56 ± 0.13 | 1.44 ± 0.12
